Reference: patent publication US12285503B2, “Methods and reagents for tumor targeting with greater efficacy and less toxicity” (CORNELL UNIVERSITY, priority 2017, dated 2025)

Tests used:
[1] = molecular target: T1, PSMA (Homo sapiens, UniProt Q04609); conditions: cited from earlier work
T1 construct: when treating prostate cancer patients with PSMA-617-Ac^225 has been reported; host or cells: prostate cancer patients (Kratochwil et al., J. Nucl. Med. 2017)

[2] = limit to the kidney and salivary glands; cited from earlier work
[3] = molecular target: T1, PSMA; experiment: PSA declines as indication of anti-tumor activity in patients; assay type: in vivo
Source text: J591-Lu^177 begins to induce PSA declines, as an indication of anti-tumor activity, at an administered ^177Lu dose of ≤30 mCi/m^2 given twice at a 2 week interval. As the dose is increased to 140, 160 and 180 mCi [total], the magnitude of the PSA/anti-tumor response gets progressively greater.
PSMA-617/ligand-Lu^177 begins to induce PSA declines at an administered cumulative ^177Lu dose of 300 mCi (11.1 Gbq) given in a 2-dose regimen at a 2 week interval (150 mCi×2). As the dose is increased to 2-dose totals of 400-500 mCi (14.8-18.5 GBq), the magnitude of the PSA/anti-tumor response gets progressively greater.

[4] = molecular target: T1, PSMA; experiment: Normal tissue bio-distribution / organ radioactive dose of PSMA-targeting agents in patients; assay type: in vivo
Source text: While the two different classes of agents both bind to their target (e.g., PSMA, SSTR-2, CD20, etc)-expressing tumor cells, the normal tissues that get targeted differs between classes of agents. As an example, PSMA is expressed not only by prostate cancer cells but also by the normal parotid and other salivary glands, lacrimal glands, kidney and small bowel (See FIGS. 4-7). […] With both types of agents, the tumor sites are targeted, but the normal tissues that are targeted are different and virtually mutually exclusive.

[5] = tested on: CWR22Rv1 cells; experiment: Internalization assay, CWR22Rv1 cells; assay type: cell-based; conditions: 1 hour at 37° C.
Protocol: (§1) Internalization assay. LNCaP and CWR22Rv1 cells were trypsinized and aliquoted into tubes at 1×10^6 cells per tube. Cells were washed once with RPMI (no FBS). ^177Lu-J591 (150,000 CPM) in […] RPMI (no FBS) per tube and/or ^177Lu-PSMA-617 (110,000 CPM) was added in […] RPMI (no FBS) per tube. The samples were incubated for 1 hour at 37° C., with the cells re-suspended every 15 minutes. After incubation, the cells were washed twice with 0.1% BSA/PBS to remove unbound/un-internalized binding agents. Samples were counted.

[6] = tested on: LNCaP cells; experiment: Internalization assay, LNCaP cells; assay type: cell-based; conditions: 1 hour at 37° C.
Protocol: as §1

T1 sequence (Q04609 whole entry): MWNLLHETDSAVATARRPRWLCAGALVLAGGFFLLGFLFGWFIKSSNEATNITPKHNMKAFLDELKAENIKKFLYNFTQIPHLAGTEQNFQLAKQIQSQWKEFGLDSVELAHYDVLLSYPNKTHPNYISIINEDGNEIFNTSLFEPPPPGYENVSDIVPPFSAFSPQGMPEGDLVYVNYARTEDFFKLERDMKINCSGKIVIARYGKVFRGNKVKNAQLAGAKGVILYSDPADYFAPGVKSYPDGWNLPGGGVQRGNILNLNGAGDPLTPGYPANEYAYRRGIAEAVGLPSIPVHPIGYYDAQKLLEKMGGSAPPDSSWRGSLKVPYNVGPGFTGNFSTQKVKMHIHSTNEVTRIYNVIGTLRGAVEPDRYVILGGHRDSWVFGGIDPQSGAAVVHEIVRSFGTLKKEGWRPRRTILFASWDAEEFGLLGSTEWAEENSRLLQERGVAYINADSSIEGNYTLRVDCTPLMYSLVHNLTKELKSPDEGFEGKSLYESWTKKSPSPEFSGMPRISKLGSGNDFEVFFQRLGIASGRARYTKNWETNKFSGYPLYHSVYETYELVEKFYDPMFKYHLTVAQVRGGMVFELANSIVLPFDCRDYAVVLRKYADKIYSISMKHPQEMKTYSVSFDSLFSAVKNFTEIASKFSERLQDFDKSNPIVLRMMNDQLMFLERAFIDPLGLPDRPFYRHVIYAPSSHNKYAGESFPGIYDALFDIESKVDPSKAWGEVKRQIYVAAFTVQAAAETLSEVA

SMILES	tolerable dose ([1]; human, in vivo) [Kbq/kg]	treatment activity above which severe xerostomia becomes the dose-limiting toxicity ([1]; human, in vivo)	anti-tumor response ([1]; treatment activity 50 kBq/kg, patients with high tumor burden)	toxicity ([1]; treatment activity 50 kBq/kg)	maximum safe cumulative dose [2]	administered cumulative 177Lu dose at which PSA declines begin ([3]; 2-dose regimen at a 2 week interval) [Gbq]	administered cumulative 177Lu dose at which PSA declines begin ([3]; 2-dose regimen at a 2 week interval (150 mCi×2)) [mCi]	dose to the bone marrow / thrombocytopenia [4]	177Lu internalization [5]	177Lu internalization [6]
O=C([O-])CC[C@H](NC(=O)N[C@@H](CCCCNC(=O)[C@H](Cc1ccc2ccccc2c1)NC(=O)C1CCC(CNC(=O)CN2CCN(CC(=O)[O-])CCN(CC(=O)[O-])CCN(CC(=O)[O-])CC2)CC1)C(=O)[O-])C(=O)[O-].[225Ac].[H+].[H+].[H+] (stereo partly shown) [PSMA-617-Ac^225]	100	exceeded 100 kBq/kg per cycle	insufficient anti-tumor response	without toxicity						
O=C([O-])CN1CCN(CC(=O)[O-])CCN(CC(=O)NCC2CCC(C(=O)N[C@@H](Cc3ccc4ccccc4c3)C(=O)NCCCC[C@H](NC(=O)N[C@@H](CCC(=O)O)C(=O)O)C(=O)O)CC2)CCN(CC(=O)[O-])CC1.[177Lu+3] (stereo partly shown) [PSMA-617-^177Lu]					27-30 Gbq	11.1	300	does not cause thrombocytopenia	internalized to a similar degree	internalized to a similar degree
